Test results published in patent publication US9688710B2, “Inhibitors of sodium glucose cotransporter 1” (LEXICON PHARMACEUTICALS, INC., priority 2012, dated 2017).

Legend:
[1] = target: Human sodium/glucose co-transporter type 1 (SGLT1) (Homo sapiens (Human), UniProt P13866); assay: In vitro human SGLT1 inhibition assay (14C-AMG uptake); format: cell-based; set-up: key to SGLT1 (human SGLT1 IC50): ***: a value less than 0.01 μM; **: a value less than 0.1 μM; *: a value less than 1 μM; —: a value not measured or exceeding μM; settings: HEK293 cells expressing human HA-SGLT1, 14C-AMG uptake
In short: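 Uptake of 14C-AMG (100 nCi) was measured by scintillation counting after 1–2 h at 37 °C, 5% CO2, with or without compound. The buffer was pH 7.3 with 140 mM NaCl, 1 mM CaCl2, 1 mM MgCl2 and 1 mg/mL BSA. Cells were a stable HEK293 line carrying HA-SGLT1 (human), plated overnight at 30,000 per well.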

[2] = target: Human sodium/glucose co-transporter type 2 (SGLT2) (Homo sapiens (Human), UniProt P31639); assay: In vitro human SGLT2 inhibition assay (14C-AMG uptake); format: cell-based; settings: HEK293 cells expressing human HA-SGLT2, 14C-AMG uptake
In short: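 Uptake of 14C-AMG (100 nCi) was followed in a stable HEK293 HA-SGLT2 line over 1-2 h at 37 °C with or without compound. Buffer: 140 mM NaCl, 10 mM HEPES, 5 mM Tris, 1 mg/mL BSA, pH 7.3. Readout was scintillation counting after washing.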

Human sodium/glucose co-transporter type 2 (SGLT2), sequence (P31639 whole entry): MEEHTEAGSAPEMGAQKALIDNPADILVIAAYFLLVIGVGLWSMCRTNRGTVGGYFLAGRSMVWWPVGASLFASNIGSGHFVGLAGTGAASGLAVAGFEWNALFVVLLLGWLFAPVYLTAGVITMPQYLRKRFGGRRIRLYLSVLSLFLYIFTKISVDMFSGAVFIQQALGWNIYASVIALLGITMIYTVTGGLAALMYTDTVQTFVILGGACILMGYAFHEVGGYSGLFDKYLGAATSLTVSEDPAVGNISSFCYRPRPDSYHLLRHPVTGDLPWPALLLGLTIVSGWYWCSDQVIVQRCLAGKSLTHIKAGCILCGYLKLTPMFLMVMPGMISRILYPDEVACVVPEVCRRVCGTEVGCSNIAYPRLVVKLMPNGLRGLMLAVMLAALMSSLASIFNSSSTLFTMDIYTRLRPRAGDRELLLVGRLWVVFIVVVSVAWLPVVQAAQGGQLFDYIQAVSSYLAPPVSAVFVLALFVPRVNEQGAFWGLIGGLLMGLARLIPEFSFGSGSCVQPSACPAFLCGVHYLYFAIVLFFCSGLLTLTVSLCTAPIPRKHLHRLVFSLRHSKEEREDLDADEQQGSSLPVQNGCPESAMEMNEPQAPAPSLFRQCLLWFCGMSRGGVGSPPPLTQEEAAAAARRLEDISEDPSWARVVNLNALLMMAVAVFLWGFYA
Human sodium/glucose co-transporter type 1 (SGLT1), sequence (P13866 whole entry): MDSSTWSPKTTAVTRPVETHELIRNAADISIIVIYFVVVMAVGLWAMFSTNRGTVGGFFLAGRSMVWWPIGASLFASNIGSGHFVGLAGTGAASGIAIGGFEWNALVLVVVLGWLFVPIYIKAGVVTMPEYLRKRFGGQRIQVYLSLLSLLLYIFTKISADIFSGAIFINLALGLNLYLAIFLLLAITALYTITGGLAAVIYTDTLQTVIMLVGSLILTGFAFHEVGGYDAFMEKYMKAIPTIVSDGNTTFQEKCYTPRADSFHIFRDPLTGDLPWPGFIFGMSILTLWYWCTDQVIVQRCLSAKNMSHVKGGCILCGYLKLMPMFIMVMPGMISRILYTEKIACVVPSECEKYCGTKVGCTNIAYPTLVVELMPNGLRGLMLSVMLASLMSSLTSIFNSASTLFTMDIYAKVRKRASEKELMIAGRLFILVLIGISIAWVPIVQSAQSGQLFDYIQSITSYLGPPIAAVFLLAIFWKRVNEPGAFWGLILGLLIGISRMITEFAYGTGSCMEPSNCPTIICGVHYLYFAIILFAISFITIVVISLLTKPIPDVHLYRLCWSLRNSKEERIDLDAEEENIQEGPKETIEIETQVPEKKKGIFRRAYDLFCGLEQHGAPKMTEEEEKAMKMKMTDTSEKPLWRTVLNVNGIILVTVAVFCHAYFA

IC50 [1]	IC50 [2]	SGLT1 (human SGLT1 IC50) [1]	Compound
< 10 nM	< 10 nM		CS[C@H]1O[C@@H](c2ccc(C)c(Cc3ccc(CCCc4nnnn4CC(=O)N4CCN(C)CC4)cc3)c2)[C@H](O)[C@@H](O)[C@@H]1O [2-(5-(3-(4-(2-methyl-5-((2S,3R,4R,5S,6R)-3,4,5-trihydroxy-6-(methylthio)tetrahydro-2H-pyran-2-yl)benzyl)phenyl)propyl)-1H-tetrazol-1-yl)-1-(4-methylpiperazin-1-yl)ethanone]
< 10 nM	< 10 nM		CS[C@H]1O[C@@H](c2ccc(C)c(Cc3ccc(OCCCC(=O)NC(CO)CO)cc3)c2)[C@H](O)[C@@H](O)[C@@H]1O [N-(1,3-dihydroxypropan-2-yl)-4-(4-(2-methyl-5-((2S,3R,4R,5S,6R)-3,4,5-trihydroxy-6-(methylthio)tetrahydro-2H-pyran-2-yl)benzyl)phenoxy)butanamide]
< 10 nM	< 10 nM		CS[C@H]1O[C@@H](c2ccc(Cl)c(Cc3ccc(OCCNC(=O)NC(C)(C)CO)cc3)c2)[C@H](O)[C@@H](O)[C@@H]1O [1-(2-(4-(2-chloro-5-((2S,3R,4R,5S,6R)-3,4,5-trihydroxy-6-(methylthio)tetrahydro-2H-pyran-2-yl)benzyl)phenoxy)ethyl)-3-(1-hydroxy-2-methylpropan-2-yl)urea]
	< 100 nM	—	CS[C@H]1O[C@@H](c2ccc(C)c(Cc3ccc(OCC(=O)O)cc3)c2)[C@H](O)[C@@H](O)[C@@H]1O [2-(4-(2-methyl-5-((2S,3R,4R,5S,6R)-3,4,5-trihydroxy-6-(methylthio)tetrahydro-2H-pyran-2-yl)benzyl)phenoxy)acetic acid]
< 10 nM	< 10 nM		CS[C@H]1O[C@@H](c2ccc(C)c(Cc3ccc(CCCCC(=O)NC(C)(C)CO)cc3)c2)[C@H](O)[C@@H](O)[C@@H]1O [N-(1-hydroxy-2-methylpropan-2-yl)-5-(4-(2-methyl-5-((2S,3R,4R,5S,6R)-3,4,5-trihydroxy-6-(methylthio)tetrahydro-2H-pyran-2-yl)benzyl)phenyl)pentanamide]
< 10 nM	< 10 nM		CS[C@H]1O[C@@H](c2ccc(Cl)c(Cc3ccc(OCCCC(=O)NC(C)(C)C(N)=O)cc3)c2)[C@H](O)[C@@H](O)[C@@H]1O [N-(1-amino-2-methyl-1-oxopropan-2-yl)-4-(4-(2-chloro-5-((2S,3R,4R,5S,6R)-3,4,5-trihydroxy-6-(methylthio)tetrahydro-2H-pyran-2-yl)benzyl)phenoxy)butanamide]
< 100 nM	< 10 nM		CS[C@H]1O[C@@H](c2ccc(C)c(Cc3ccc(CCCCCCC(=O)NC(C)(C)C(N)=O)cc3)c2)[C@H](O)[C@@H](O)[C@@H]1O [N-(1-amino-2-methyl-1-oxopropan-2-yl)-7-(4-(2-methyl-5-((2S,3R,4R,5S,6R)-3,4,5-trihydroxy-6-(methylthio)tetrahydro-2H-pyran-2-yl)benzyl)phenyl)heptanamide]
< 100 nM	< 10 nM		CS[C@H]1O[C@@H](c2ccc(Cl)c(Cc3ccc(OCCCC(=O)N(CCO)CCO)cc3)c2)[C@H](O)[C@@H](O)[C@@H]1O [4-(4-(2-chloro-5-((2S,3R,4R,5S,6R)-3,4,5-trihydroxy-6-(methylthio)tetrahydro-2H-pyran-2-yl)benzyl)phenoxy)-N,N-bis(2-hydroxyethyl)butanamide]
< 10 nM	< 10 nM		CS[C@H]1O[C@@H](c2ccc(C)c(Cc3ccc(CCCCNC(=O)NC(C)(C)C(N)=O)cc3)c2)[C@H](O)[C@@H](O)[C@@H]1O [2-methyl-2-(3-(4-(4-(2-methyl-5-((2S,3R,4R,5S,6R)-3,4,5-trihydroxy-6-(methylthio)tetrahydro-2H-pyran-2-yl)benzyl)phenyl)butyl)ureido)propanamide]
	< 100 nM	—	CS[C@H]1O[C@@H](c2ccc(Cl)c(Cc3ccc(OCCCC(=O)NC(C)(C)C(=O)O)cc3)c2)[C@H](O)[C@@H](O)[C@@H]1O [2-(4-(4-(2-chloro-5-((2S,3R,4R,5S,6R)-3,4,5-trihydroxy-6-(methylthio)tetrahydro-2H-pyran-2-yl)benzyl)phenoxy)butanamido)-2-methylpropanoic acid]
< 10 nM	< 10 nM		CS[C@H]1O[C@@H](c2ccc(C)c(Cc3ccc(/C=C/CCC(=O)NC(C)(C)C(N)=O)cc3)c2)[C@H](O)[C@@H](O)[C@@H]1O [(E)-N-(1-amino-2-methyl-1-oxopropan-2-yl)-5-(4-(2-methyl-5-((2S,3R,4R,5S,6R)-3,4,5-trihydroxy-6-(methylthio)tetrahydro-2H-pyran-2-yl)benzyl)phenyl)pent-4-enamide]
< 10 nM	< 10 nM		CS[C@H]1O[C@@H](c2ccc(C)c(Cc3ccc(CCCCNC(C)(C)C(=O)N4CCN(C)CC4)cc3)c2)[C@H](O)[C@@H](O)[C@@H]1O [2-methyl-2-((4-(4-(2-methyl-5-((2S,3R,4R,5S,6R)-3,4,5-trihydroxy-6-(methylthio)tetrahydro-2H-pyran-2-yl)benzyl)phenyl)butyl)amino)-1-(4-methylpiperazin-1-yl)propan-1-one]
< 10 nM	< 10 nM		CS[C@H]1O[C@@H](c2ccc(C)c(Cc3ccc(/C=C/CCC(=O)NC(C)(C)C(=O)N4CCN(C)CC4)cc3)c2)[C@H](O)[C@@H](O)[C@@H]1O [(E)-N-(2-methyl-1-(4-methylpiperazin-1-yl)-1-oxopropan-2-yl)-5-(4-(2-methyl-5-((2S,3R,4R,5S,6R)-3,4,5-trihydroxy-6-(methylthio)tetrahydro-2H-pyran-2-yl)benzyl)phenyl)pent-4-enamide]
< 100 nM	< 10 nM		Cc1ccc([C@@H]2O[C@H]([S+](C)[O-])[C@@H](O)[C@H](O)[C@H]2O)cc1Cc1ccc(CCCC(=O)NC(C)(C)C(=O)N2CCN(C)CC2)cc1 (stereo partly drawn) [N-(2-methyl-1-(4-methylpiperazin-1-yl)-1-oxopropan-2-yl)-4-(4-(2-methyl-5-((2S,3R,4R,5S,6R)-3,4,5-trihydroxy-6-(methylsulfinyl)tetrahydro-2H-pyran-2-yl)benzyl)phenyl)butanamide]
< 10 nM	< 10 nM		CS[C@H]1O[C@@H](c2ccc(C)c(Cc3ccc(CCCC(=O)NC(C)(C)C(=O)NC4CCN(C(=O)OC(C)(C)C)CC4)cc3)c2)[C@H](O)[C@@H](O)[C@@H]1O [tert-butyl 4-(2-methyl-2-(4-(4-(2-methyl-5-((2S,3R,4R,5S,6R)-3,4,5-trihydroxy-6-(methylthio)tetrahydro-2H-pyran-2-yl)benzyl)phenyl)butanamido)propanamido)piperidine-1-carboxylate]
< 10 nM	< 10 nM		CS[C@H]1O[C@@H](c2ccc(C)c(Cc3ccc(CCCC(=O)NC(C)(C)C(N)=O)cc3)c2)[C@H](O)[C@@H](O)[C@@H]1O [N-(1-amino-2-methyl-1-oxopropan-2-yl)-4-(4-(2-methyl-5-((2S,3R,4R,5S,6R)-3,4,5-trihydroxy-6-(methylthio)tetrahydro-2H-pyran-2-yl)benzyl)phenyl)butanamide]
< 10 nM	< 10 nM		CS[C@H]1O[C@@H](c2ccc(C)c(Cc3ccc(OCCCC(=O)NC(C)(C)C(=O)O)cc3)c2)[C@H](O)[C@@H](O)[C@@H]1O [2-methyl-2-(4-(4-(2-methyl-5-((2S,3R,4R,5S,6R)-3,4,5-trihydroxy-6-(methylthio)tetrahydro-2H-pyran-2-yl)benzyl)phenoxy)butanamido)propanoic acid]
